“Also recorded” adds a separate entry of the source. Where no end group is shown, it is not given here. [ ]: non-standard residue; d: D form.
Assays:
Rat cortical neurons [1] = assay: Duration of neuroprotection afforded by TAT-NR2B9c in the face of excitotoxic insults (NMDA-induced cell death, pyknotic nuclei as % of total); format: cell-based; conditions: for significant protection (duration after washout): peptide 10 μM for 1 hr, then washout
Method: Rat cortical neurons, taken from E21 rats, were cultured for 7-9 days in vitro in Neurobasal-A medium+B-27 supplement (both invitrogen), 1 mM glutamine, +50 units/ml penicillin, 50 μg/ml streptomycin. • 1. At varying times prior to compound exposure, neurons were removed from Neurobasal-A based culture medium, and placed into “transfection medium” (TM; Bading et al. (1993), Science 260, 181-186): 10% (Minimum Essential Medium, invitrogen (21090022), containing Earles salt, but no L-glutamine), 90% Salt-Glucose-Glycine (SGG) medium SGG: 114 mM NaCl, 0.219% NaHCO3, 5.292 mM KCl, 1 mM MgCl2, 2 mM CaCl2, 10 mM HEPES, 1 mM Glycine, 30 mM Glucose, 0.5 mM sodium pyruvate, 0.1% Phenol Red, insulintransferrin-selenite supplement (Sigma, 7.5 μg insulin/ml; 7.5 μg transferrin/ml and 7.5 ng sodium selenite/ml); final osmolarity 325 mosm/l). All subsequent steps took place in TM. • 2. Neurons were then exposed to inventive fusion peptides at 10 μM for 1 hr. (particularly TAT-NR2B9c peptides in L-form (L-TAT-L-NR2B9c sequence YGRKKRRQRRR-KLSSIESDV (SEQ ID NO: 32), identical to US 20030050243) and their D-form (D-TAT-D-NR2B9c, sequence vdseisslk-rrrqrrkkrgyin (SEQ ID NO: 33))) • 3. After 1 hr neurons were washed once in TM to remove peptide. • 4. After a varying period of time, neurons were exposed to NMDA at either 20 or 40 μM for 1 hr, after which neurons are placed in TM for 24 h. • 5. Neurons were fixed (3% paraformaldehyde) and stained (DAPI, 4′,6-Diamidino-2-phenylindole). Number of pyknotic nuclei as a % of total is counted. Experiments were performed in triplicate.

Rat cortical neurons [2] = assay: Duration of neuroprotection afforded by (Arg)8-NR2B9c in the face of excitotoxic insults (NMDA-induced cell death, pyknotic nuclei as % of total); format: cell-based
Method: Rat cortical neurons, taken from E21 rats, were cultured for 7-9 days in vitro in Neurobasal-A medium+B-27 supplement (both Invitrogen), 1 mM glutamine, +50 units/ml penicillin, 50 μg/ml streptomycin • 1. At varying times prior to peptide exposure, neurons were removed from Neurobasal-A based culture medium, and placed into TM (see above) with the inclusion of Insulin-transferrin-selenite supplement (Sigma). All subsequent steps took place in TM (see above). • 2. Neurons were then exposed to inventive fusion peptides at 10 μM for 1 hr. (particularly (Arg)8-NR2B9c peptides in D-form (D-TAT-D-NR2B9c, sequence vdseisslk-rrrrrrrr (SEQ ID NO: 35)) and also L-form (SEQ ID NO: 34)) • 3. After 1 hr neurons were washed once in TM to remove peptide. • 4. After a varying period of time, neurons were exposed to NMDA for 1 hr, after which neurons are placed in TM for 24 h. • 5. Neurons were fixed (3% paraformaldehyde) and stained (DAPI 4′,6-Diamidino-2-phenylindole). The number of pyknotic nuclei as a % of total was counted. Experiments were performed in triplicate.

Substance	efficacy (lowered cell death rate %) versus comparative compound L-TAT-L-NR2B9c (Rat cortical neurons [1]; 20 μM NMDA, FIG. 1)	gap between peptide incubation and NMDA addition at which the positive effect shows (Rat cortical neurons [1]; 20 μM NMDA, FIG. 1)	efficacy (lowered cell death rate %) versus comparative compound L-TAT-L-NR2B9c (Rat cortical neurons [1]; 40 μM NMDA, FIG. 2)	time window in which the remarkable positive effect becomes apparent (Rat cortical neurons [1]; 40 μM NMDA, FIG. 2)	significant protection (duration after washout) (Rat cortical neurons [1]; 40 μM NMDA, FIG. 2)	efficacy (lowered cell death rate %) versus comparative compound L-(Arg)8-L-NR2B9c (Rat cortical neurons [2]; 20 μM NMDA, FIG. 3)	superior neuroprotection after washout of the peptide (duration) (Rat cortical neurons [2]; 20 μM NMDA, peptide 10 μM for 1 hr, then washout, FIG. 3)	efficacy (lowered cell death rate %) versus comparative compound L-(Arg)8-L-NR2B9c (Rat cortical neurons [2]; 40 μM NMDA, up to the 8 hr time point, FIG. 4)	performance compared with D-TAT-D-NR2B9c (Rat cortical neurons [2]; overall, 20 and 40 μM NMDA)
vdseisslk-rrrqrrkkrgy ([dV][dD][dS][dE][dI][dS][dS][dL][dK][dR][dR][dR][dQ][dR][dR][dK][dK][dR]G[dY]-NH2; N-terminus assumed; SMILES CC[C@@H](C)[C@@H](NC(=O)[C@@H](CCC(=O)O)NC(=O)[C@@H](CO)NC(=O)[C@@H](CC(=O)O)NC(=O)[C@H](N)C(C)C)C(=O)N[C@H](CO)C(=O)N[C@H](CO)C(=O)N[C@H](CC(C)C)C(=O)N[C@H](CCCCN)C(=O)N[C@H](CCCNC(=N)N)C(=O)N[C@H](CCCNC(=N)N)C(=O)N[C@H](CCCNC(=N)N)C(=O)N[C@H](CCC(N)=O)C(=O)N[C@H](CCCNC(=N)N)C(=O)N[C@H](CCCNC(=N)N)C(=O)N[C@H](CCCCN)C(=O)N[C@H](CCCCN)C(=O)N[C@H](CCCNC(=N)N)C(=O)NCC(=O)N[C@H](Cc1ccc(O)cc1)C(N)=O) [D-TAT-D-NR2B9c, inventive fusion peptide of D-TAT transporter and D-NR2B9c]	at least equal, but predominantly significantly increased efficacy	≥ 8 h	at least equal, but predominantly significantly increased efficacy	less than 24 h	up to 24 hours				
vdseisslk-rrrrrrrr ([dV][dD][dS][dE][dI][dS][dS][dL][dK][dR][dR][dR][dR][dR][dR][dR][dR]) [D-(Arg)8-D-NR2B9c, inventive fusion peptide of D-(Arg)8 transporter and D-NR2B9c]						at least equal, but predominantly significantly increased efficacy	up to 8 hours	at least equal, but predominantly significant increased efficacies; also recorded: equal to better protective effects	performs similar to D-TAT-D-NR2B9c (SEQ ID NO: 33)), albeit with a shorter duration of neuroprotective activity
YGRKKRRQRRRKLSSIESDV (Description of sequence L-TAT-L-NR2B9c sequence) [comparative compound, identical to US 20030050243, reference compound]					1 h				
